Values joined by “and” are separate entries in the source; they are usually repeats but may differ in a detail not shown here. Identical values can stand only once.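 1) Cells in 96-well plates. 2) Compound, 48 h, 5 concentrations. 3) Linear interpolation between surrounding doses. 4) Unreached endpoint = highest concentration. Here, GI50 denotes the concentration required for 50% inhibition of growth. TGI: total growth inhibition.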 *1 amine or outer side, *2 acyl side, *3 side chain or, on linkers, in order; H or OH if unused. Where a SMILES comes first, the peptide text is derived from it. Bridges are numbered along the chain shown (N, C = ends). [ ]: non-standard residue; d: D form. ξ: configuration not given here. X4 = CCC(C)C(N[*:1])C(O)CC(=O)O[C@H](C(=O)C(C)C(=O)[*:2])C(C)C; NMeY = CN[C@@H](Cc1ccc(O)cc1)C(=O)O; ξNMeL = CNC(CC(C)C)C(=O)O; ξT = CC(O)C(N)C(=O)O
Experiments:
Assay in all cases: NCI tumour cell line growth inhibition, 48 h
HL-60(TB) leukemia = test system: HL-60(TB) leukemia
RXF 393 renal = test system: RXF 393 renal
SNB-75 CNS = test system: SNB-75 CNS
MDA-MB-231 breast = test system: MDA-MB-231 breast
SF-295 CNS = test system: SF-295 CNS
NCI-H23 lung = test system: NCI-H23 lung
ACHN renal = test system: ACHN renal
COLO 205 colon = test system: COLO 205 colon
MALME-3M melanoma = test system: MALME-3M melanoma
OVCAR-3 ovarian = test system: OVCAR-3 ovarian

Row | SMILES | GI50 (HL-60(TB) leukemia) [µM] | TGI (HL-60(TB) leukemia) | GI50 (RXF 393 renal) [µM] | TGI (RXF 393 renal) [µM] | GI50 (SNB-75 CNS) [µM] | TGI (SNB-75 CNS) | GI50 (MDA-MB-231 breast) [µM] | TGI (MDA-MB-231 breast) [µM] | GI50 (SF-295 CNS) [µM] | TGI (SF-295 CNS) [µM] | GI50 (NCI-H23 lung) [µM] | TGI (NCI-H23 lung) [µM] | GI50 (ACHN renal) [µM] | TGI (ACHN renal) | TGI (COLO 205 colon) [µM] | TGI (MALME-3M melanoma) [µM] | TGI (OVCAR-3 ovarian) [µM]
1 | CC[N+](CC)=c1ccc2nc3c(cc(N)c4ccccc43)oc-2c1 | 0.134 | 0.326 µM | 0.173 | 0.319 | 0.61 | 1.88 µM | 0.363 | 1.73 | 0.111 | 0.288 | 0.125 | 0.358 | 0.412 | 1.72 µM |  |  | 
2 | N#CC1=CNc2sccc2S1(=O)=O |  |  |  |  |  | > 100 µM |  | > 100 |  | > 100 |  | > 100 |  | > 100 µM | > 100 | > 100 | > 100
3 | NC(=O)COc1ccccc1 |  | > 100 µM |  | > 100 |  | > 100 µM |  |  |  | > 100 |  | > 100 |  | > 100 µM | > 100 | > 100 | > 100
4 | O=C1NC(N/N=C\c2ccccc2)=N/C1=C/c1ccc(Cl)cc1 |  |  |  | 47.3 |  | 42.2 µM |  | > 100 |  | 78.8 |  | 39.9 |  | 30 µM | > 100 | 62.1 | 39.7
5 | OCCN=C1Nc2ccc(Cl)cc2C(=S)N2CSC[C@@H]12 |  |  |  | > 100 |  |  |  | > 100 |  | > 100 |  | > 100 |  | > 100 µM | > 100 | > 100 | > 100
6 | CCC(C)C1NC(=O)C(NC(=O)C(CC(C)C)N(C)C(=O)[C@@H]2CCCN2)C(C)OC(=O)[C@H](Cc2ccc(OC)cc2)N(C)C(=O)[C@@H]2CCCN2C(=O)[C@H](CC(C)C)NC(=O)C(C)C(=O)[C@H](C(C)C)OC(=O)CC1O (some centres undefined) (H-P[ξNMeL][ξT][X4]LP[NMeY](Me); ester 3-C) |  | 0.0279 µM and 0.0213 µM |  |  |  | 0.00813 µM and 0.0191 µM |  |  |  | 0.0149 |  | 0.00218 |  | 0.0352 µM and 0.156 µM |  | 0.00847 | 0.00686
7 | O=C(N=Nc1ccccc1Br)NNc1ccccc1Br |  | 86.7 µM |  |  |  | > 100 µM |  | > 100 |  |  |  | > 100 |  | > 100 µM |  | > 100 | > 100
8 | OC1OC(c2ccco2)C(F)(F)C(F)(F)C1(F)F (centres undefined) |  | > 100 µM |  | > 100 |  |  |  | > 100 |  | > 100 |  |  |  | > 100 µM | > 100 | > 100 | > 100
9 | Cc1ccc(O)c(C2=NNC(c3cccc(Br)c3)C2)c1 (centres undefined) |  | > 100 µM |  | > 100 |  |  |  |  |  | > 100 |  | > 100 |  | > 100 µM | > 100 | > 100 | > 100
10 | CCOC(=O)c1c(N2CCOCC2)[nH]c(=O)c(C(c2ccc(OC)cc2)c2c(O)c(C(=O)OCC)c(N3CCOCC3)[nH]c2=O)c1O |  |  |  | > 100 |  | > 100 µM |  | > 100 |  | > 100 |  | > 100 |  | > 100 µM | > 100 | > 100 | > 100
11 | O=C(NNC(=S)Nc1ccccc1)c1csc(NC(=S)NC2CCCCC2)n1 |  | > 100 µM |  |  |  | > 100 µM |  | > 100 |  | > 100 |  | > 100 |  | > 100 µM | > 100 | > 100 | > 100
12 | Nc1nc2c(ncn2C2C=CC(CO)O2)c(=O)[nH]1 (centres undefined) |  |  |  | > 100 |  | > 100 µM |  | > 100 |  | > 100 |  | > 100 |  |  | > 100 | > 100 | > 100
13 | CCOC(=O)C(O)(NC(C)=O)C(F)(F)F (centres undefined) |  | > 100 µM |  | > 100 |  | > 100 µM |  |  |  | > 100 |  | > 100 |  | > 100 µM | > 100 | > 100 | > 100
14 | O=C1OS2(OCc3cccc4cccc2c34)c2ccccc21 (centres undefined) |  | > 100 µM |  |  |  | > 100 µM |  | > 100 |  | > 100 |  | > 100 |  | > 100 µM | > 100 | > 100 | > 100
15 | O=[As](O)(O)c1cc(N=Nc2ccc(-c3ccc(N=Nc4cc([As](=O)(O)O)c(O)cc4O)cc3)cc2)c(O)cc1O |  | > 67.6 µM |  | > 100 |  | > 100 µM |  |  |  | > 100 |  | > 100 |  | > 100 µM | > 100 | > 100 | > 78.4
16 | Cc1ccc(S(=O)(=O)N2CCN(CCN(C)CCN3CCN(S(=O)(=O)c4ccc(C)cc4)CC3)CC2)cc1 |  | 33.6 µM |  | 27.8 |  |  |  | 49 |  | 31.9 |  | 44.8 |  | 32.7 µM | 38.9 | 33.7 | 31.1
17 | CCOC(=O)c1sc2c(c1OC(=O)c1ccccc1)c(=O)n(-c1ccccc1)c(=S)n2-c1ccccc1 |  | > 100 µM |  | > 100 |  |  |  | 87.2 |  | > 100 |  | 48.9 |  | > 100 µM | > 100 | 54.5 | 95.6

Reference: PubChem BioAssay (NCI)
